This passage reports T/C results from PubChem BioAssay AID192 (DTP/NCI, 2004).

SMILES strings stand for the structures. Values joined by “and” are separate entries in the source; they are usually repeats but may differ in a detail not shown here. Equal values may be shown once. Inconclusive results and toxic doses are left out.

This assay deals with BDF1 mice, B16 melanoma ip, median survival T/C. The assay is described as follows: NCI In Vivo Anticancer Drug Screen. Data for tumor model B16 Melanoma (intraperitoneal) in B6D2F1 (BDF1) mice. The conditions noted are these: endpoint: median survival time, higher = longer survival. Put shortly:
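In this screen, activity was judged from survival or tumor size in treated versus vehicle-treated tumor-bearing mice, reported as T/C.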

Where [1] appears, read: dose: 3.12 mg/kg/injection, schedule: Q01DX009 (ip), vehicle: saline.
[2] abbreviates: dose: 5.0 mg/kg/injection, schedule: Q01DX009 (ip), vehicle: saline with Tween-80.
Setting [3] is: dose: 6.25 mg/kg/injection, schedule: Q01DX009 (ip), vehicle: saline.
The mark [4] stands for this setting: dose: 12.5 mg/kg/injection, schedule: Q01DX009 (ip), vehicle: saline.
[5] abbreviates: dose: 25.0 mg/kg/injection, schedule: Q01DX009 (ip), vehicle: saline.
Where [6] appears, read: dose: 25.0 mg/kg/injection, schedule: Q01DX009 (ip), vehicle: saline with Tween-80.
[7] abbreviates: dose: 50.0 mg/kg/injection, schedule: Q01DX009 (ip), vehicle: saline with Tween-80.

Turning to `O=c1[nH]cc(F)c(=O)[nH]1`, the T/C runs as follows: (dose: 0.5 mg/kg/injection, schedule: Q01DX009 (ip), vehicle: saline) 107 % of control; (dose: 1.25 mg/kg/injection, schedule: Q03HX024 (ip), vehicle: saline) 110 % of control; (dose: 2.0 mg/kg/injection, schedule: Q01DX009 (ip), vehicle: saline) 118 % of control; (dose: 2.5 mg/kg/injection, schedule: Q01DX017 (ip), vehicle: saline) 104 % of control; (dose: 2.5 mg/kg/injection, schedule: Q03HX024 (ip), vehicle: saline) 112 % of control; under setting [1], 102 % of control. The T/C runs as follows: (dose: 3.8 mg/kg/injection, schedule: Q04DX003 (ip), vehicle: saline) 116 % of control; (dose: 5.0 mg/kg/injection, schedule: Q01DX001 (ip), vehicle: saline) 105 % of control; under setting [2], 104 % of control; (dose: 5.0 mg/kg/injection, schedule: Q01DX017 (ip), vehicle: saline) 107 % of control; (dose: 5.0 mg/kg/injection, schedule: Q05DX010 (ip), vehicle: saline) 115 % of control; under setting [3], 91 % of control. Further, the T/C (dose: 7.0 mg/kg/injection, schedule: Q01DX009 (ip), vehicle: saline) was 117 % of control; the T/C (dose: 7.5 mg/kg/injection, schedule: Q01DX009 (ip), vehicle: saline) was 117 % of control; the T/C (dose: 7.5 mg/kg/injection, schedule: Q04DX003 (ip), vehicle: saline) was 116 % of control; the T/C (dose: 7.8 mg/kg/injection, schedule: Q04DX003 (ip), vehicle: saline) was 104 % of control; the T/C (dose: 10.0 mg/kg/injection, schedule: Q01DX001 (ip), vehicle: saline) was 107 % of control; the T/C (dose: 10.0 mg/kg/injection, schedule: Q01DX009 (ip), vehicle: saline with Tween-80) is 104 % of control and 111 % of control and 114 % of control. The T/C by setting is: (dose: 10.0 mg/kg/injection, schedule: Q05DX010 (ip), vehicle: saline) 120 % of control; (dose: 12.0 mg/kg/injection, schedule: Q01DX009 (ip), vehicle: saline) 115 % of control; under setting [4], 123 % of control; (dose: 12.5 mg/kg/injection, schedule: Q04DX005 (ip), vehicle: saline) 107 % of control; (dose: 13.0 mg/kg/injection, schedule: Q04DX003 (ip), vehicle: saline) 108 % of control; (dose: 15.0 mg/kg/injection, schedule: Q01DX009 (ip), vehicle: saline) 121 % of control and 122 % of control. The T/C was 122 % of control (dose: 15.0 mg/kg/injection, schedule: Q04DX003 (ip), vehicle: saline); 115 % of control (dose: 20.0 mg/kg/injection, schedule: Q01DX001 (ip), vehicle: saline); 116 % of control and 119 % of control (dose: 20.0 mg/kg/injection, schedule: Q01DX009 (ip), vehicle: saline with Tween-80); 161 % of control and 169 % of control (dose: 20.0 mg/kg/injection, schedule: Q01DX017 (ip), vehicle: saline); 103 % of control (dose: 21.6 mg/kg/injection, schedule: Q04DX003 (ip), vehicle: saline); 119 % of control under setting [5]. Further, the T/C reads like this: (dose: 25.0 mg/kg/injection, schedule: Q04DX003 (ip), vehicle: saline) 122 % of control; (dose: 25.0 mg/kg/injection, schedule: Q04DX005 (ip), vehicle: saline) 117 % of control; (dose: 30.0 mg/kg/injection, schedule: Q01DX009 (ip), vehicle: saline) 124 % of control; (dose: 30.0 mg/kg/injection, schedule: Q04DX003 (ip), vehicle: saline) 117 % of control and 122 % of control; (dose: 36.0 mg/kg/injection, schedule: Q04DX003 (ip), vehicle: saline) 104 % of control; (dose: 40.0 mg/kg/injection, schedule: Q01DX001 (ip), vehicle: saline) 120 % of control. Also, the T/C (dose: 40.0 mg/kg/injection, schedule: Q01DX009 (ip), vehicle: saline with Tween-80) was 88 % of control and 97 % of control; the T/C (dose: 50.0 mg/kg/injection, schedule: Q01DX001 (ip), vehicle: saline) was 110 % of control; the T/C (dose: 50.0 mg/kg/injection, schedule: Q04DX003 (ip), vehicle: saline) was 120 % of control; the T/C (dose: 50.0 mg/kg/injection, schedule: Q04DX005 (ip), vehicle: saline) is 115 % of control; the T/C (dose: 60.0 mg/kg/injection, schedule: Q01DX009 (ip), vehicle: saline) was 39 % of control; the T/C (dose: 60.0 mg/kg/injection, schedule: Q04DX003 (ip), vehicle: saline) was 52 % of control and 119 % of control. Moreover, the T/C is, setting by setting: (dose: 90.0 mg/kg/injection, schedule: Q04DX003 (ip), vehicle: saline) 123 % of control; (dose: 100.0 mg/kg/injection, schedule: Q01DX001 (ip), vehicle: saline) 110 % of control; (dose: 120.0 mg/kg/injection, schedule: Q04DX003 (ip), vehicle: saline) 93 % of control; (dose: 200.0 mg/kg/injection, schedule: Q01DX001 (ip), vehicle: saline) 110 % of control; (dose: 240.0 mg/kg/injection, schedule: Q04DX003 (ip), vehicle: saline) 73 % of control; (dose: 480.0 mg/kg/injection, schedule: Q04DX003 (ip), vehicle: saline) 47 % of control.

In the case of `O=P(N1CCOCC1)(N1CC1)N1CC1`, the T/C is 115 % of control under setting [3] and 118 % of control under setting [4].

Consider `CN1CCC(=C(C#N)C#N)CC1`, for which the T/C is 105 % of control (dose: 3.13 mg/kg/injection, schedule: Q04DX003 (ip), vehicle: saline); 94 % of control (dose: 6.25 mg/kg/injection, schedule: Q04DX003 (ip), vehicle: saline); 110 % of control (dose: 12.5 mg/kg/injection, schedule: Q04DX003 (ip), vehicle: saline).

As for `Clc1nc2ccccc2nc1CI`, the T/C is, setting by setting: (dose: 0.04 mg/kg/injection, schedule: Q01DX009 (ip), vehicle: saline with Tween-80) 97 % of control; (dose: 0.08 mg/kg/injection, schedule: Q01DX009 (ip), vehicle: saline with Tween-80) 97 % of control; (dose: 0.15 mg/kg/injection, schedule: Q01DX009 (ip), vehicle: saline with Tween-80) 97 % of control; (dose: 0.3 mg/kg/injection, schedule: Q01DX009 (ip), vehicle: saline with Tween-80) 92 % of control; (dose: 0.31 mg/kg/injection, schedule: Q01DX009 (ip), vehicle: saline with Tween-80) 94 % of control; (dose: 0.62 mg/kg/injection, schedule: Q01DX009 (ip), vehicle: saline with Tween-80) 91 % of control. For the same compound, the T/C by setting is: (dose: 1.25 mg/kg/injection, schedule: Q01DX009 (ip), vehicle: saline with Tween-80) 100 % of control; (dose: 2.5 mg/kg/injection, schedule: Q01DX009 (ip), vehicle: saline with Tween-80) 97 % of control; under setting [2], 88 % of control.

`O=[N+]([O-])c1ccc(NCc2ccccc2)nc1`: the T/C reads like this: under setting [6], 100 % of control; under setting [7], 100 % of control; (dose: 100.0 mg/kg/injection, schedule: Q01DX009 (ip), vehicle: saline with Tween-80) 121 % of control; (dose: 200.0 mg/kg/injection, schedule: Q01DX009 (ip), vehicle: saline with Tween-80) 105 % of control.

As for `COc1ccccc1N=NC(C#N)C(N)=O` (centres undefined), the T/C was 91 % of control (dose: 6.25 mg/kg/injection, schedule: Q01DX009 (ip), vehicle: saline with Tween-80); 94 % of control (dose: 12.5 mg/kg/injection, schedule: Q01DX009 (ip), vehicle: saline with Tween-80); 87 % of control under setting [6]; 112 % of control under setting [7].

For `C=CCOCC(O)CO` (centres undefined), the T/C was 109 % of control (dose: 100.0 mg/kg/injection, schedule: Q04DX003 (ip), vehicle: saline); 93 % of control (dose: 200.0 mg/kg/injection, schedule: Q04DX003 (ip), vehicle: saline); 102 % of control (dose: 400.0 mg/kg/injection, schedule: Q04DX003 (ip), vehicle: saline).

Take `CCCCC(CC)C1OC(=O)C(C)O1` (centres undefined): the T/C (dose: 100.0 mg/kg/injection, schedule: Q04DX003 (ip), vehicle: Klucel (hydroxypropylcellulose) (HPC)) is 98 % of control and the T/C (dose: 200.0 mg/kg/injection, schedule: Q04DX003 (ip), vehicle: Klucel (hydroxypropylcellulose) (HPC)) was 100 % of control.

Regarding `CCCC(C(=O)OCCN(CC)CC)(c1ccccc1)c1ccccc1`, the T/C under setting [1] was 95 % of control, the T/C under setting [3] was 102 % of control, the T/C under setting [4] is 100 % of control and the T/C under setting [5] was 97 % of control.
